Reference: PubChem BioAssay (NCI)
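Interpolation was linear, between the two tested concentrations surrounding the appropriate level; five concentrations were tested over 48 hours in 96-well plates. At the GI50, growth is halved. TGI: concentration producing complete growth inhibition.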

Assays:
Assay in all cases: growth of human tumour cells (NCI), 48 h
786-0 renal = tested on: 786-0 renal
A498 renal = tested on: A498 renal
A549 NSCLC = tested on: A549 NSCLC
ACHN renal = tested on: ACHN renal
BT-549 breast = tested on: BT-549 breast
CAKI-1 renal = tested on: CAKI-1 renal
CCRF-CEM leukemia = tested on: CCRF-CEM leukemia
COLO 205 colon = tested on: COLO 205 colon
DU-145 prostate = tested on: DU-145 prostate
HCC-2998 colon = tested on: HCC-2998 colon
HCT-116 colon = tested on: HCT-116 colon
HCT-15 colon = tested on: HCT-15 colon
HL-60(TB) leukemia = tested on: HL-60(TB) leukemia
HOP-62 NSCLC = tested on: HOP-62 NSCLC
HOP-92 NSCLC = tested on: HOP-92 NSCLC
HS 578T breast = tested on: HS 578T breast
HT29 colon = tested on: HT29 colon
IGROV1 ovarian = tested on: IGROV1 ovarian
K-562 leukemia = tested on: K-562 leukemia
KM12 colon = tested on: KM12 colon
LOX IMVI melanoma = tested on: LOX IMVI melanoma
M14 melanoma = tested on: M14 melanoma
MALME-3M melanoma = tested on: MALME-3M melanoma
MCF7 breast = tested on: MCF7 breast
MDA-MB-231 breast = tested on: MDA-MB-231 breast
MDA-MB-435 = tested on: MDA-MB-435
MOLT-4 leukemia = tested on: MOLT-4 leukemia
NCI-H226 lung = tested on: NCI-H226 lung
NCI-H23 lung = tested on: NCI-H23 lung
NCI-H460 lung = tested on: NCI-H460 lung
NCI-H522 lung = tested on: NCI-H522 lung
NCI/ADR-RES ovarian = tested on: NCI/ADR-RES ovarian
OVCAR-3 ovarian = tested on: OVCAR-3 ovarian
OVCAR-4 ovarian = tested on: OVCAR-4 ovarian
OVCAR-5 ovarian = tested on: OVCAR-5 ovarian
OVCAR-8 ovarian = tested on: OVCAR-8 ovarian
PC-3 prostate = tested on: PC-3 prostate
RPMI-8226 leukemia = tested on: RPMI-8226 leukemia
RXF 393 renal = tested on: RXF 393 renal
SF-268 CNS = tested on: SF-268 CNS
SF-295 CNS = tested on: SF-295 CNS
SF-539 CNS = tested on: SF-539 CNS
SK-MEL-2 melanoma = tested on: SK-MEL-2 melanoma
SK-MEL-28 melanoma = tested on: SK-MEL-28 melanoma
SK-MEL-5 melanoma = tested on: SK-MEL-5 melanoma
SK-OV-3 ovarian = tested on: SK-OV-3 ovarian
SN12C renal = tested on: SN12C renal
SNB-19 CNS = tested on: SNB-19 CNS
SNB-75 CNS = tested on: SNB-75 CNS
SR leukemia = tested on: SR leukemia
SW-620 colon = tested on: SW-620 colon
T-47D breast = tested on: T-47D breast
TK-10 renal = tested on: TK-10 renal
U251 CNS = tested on: U251 CNS
UACC-257 melanoma = tested on: UACC-257 melanoma
UACC-62 melanoma = tested on: UACC-62 melanoma
UO-31 renal = tested on: UO-31 renal

## CNCC1CCn2c(c(C3=C(c4cn(C)c5ccccc45)C(=O)NC3=O)c3ccccc32)C1 (centres undefined)
786-0 renal
  GI50: 4.88 µM
  TGI: 11 µM
A498 renal
  GI50: 5.65 µM
  TGI: 14.5 µM
A549 NSCLC
  GI50: 3.16 µM
  TGI: 10.6 µM
ACHN renal
  GI50: 3.62 µM
  TGI: 13.1 µM
BT-549 breast
  GI50: 4.36 µM
  TGI: 10.9 µM
CAKI-1 renal
  GI50: 3.68 µM
  TGI: 9.28 µM
CCRF-CEM leukemia
  GI50: 2.89 µM
  TGI: 12 µM
COLO 205 colon
  GI50: 1.47 µM
  TGI: 4.77 µM
DU-145 prostate
  GI50: 3.76 µM
  TGI: 8.6 µM
HCC-2998 colon
  GI50: 3.76 µM
  TGI: 7.77 µM
HCT-116 colon
  GI50: 1.82 µM
  TGI: 5.56 µM
HCT-15 colon
  GI50: 5.04 µM
  TGI: 16.5 µM
HL-60(TB) leukemia
  GI50: 3.7 µM
  TGI: 8.61 µM
HOP-62 NSCLC
  GI50: 3.62 µM
  TGI: 9.99 µM
HOP-92 NSCLC
  GI50: 0.13 µM
  TGI: 8.64 µM
HS 578T breast
  GI50: 2.9 µM
  TGI: 8.7 µM
HT29 colon
  GI50: 2.79 µM
  TGI: 8.18 µM
IGROV1 ovarian
  GI50: 4.14 µM
  TGI: 9.9 µM
K-562 leukemia
  GI50: 3.29 µM
  TGI: 8.41 µM
KM12 colon
  GI50: 3.41 µM
  TGI: 7.41 µM
LOX IMVI melanoma
  GI50: 3.84 µM
  TGI: 7.4 µM
M14 melanoma
  GI50: 3.05 µM
  TGI: 6.78 µM
MALME-3M melanoma
  GI50: 2.13 µM
  TGI: 5.52 µM
MCF7 breast
  GI50: 1.74 µM
  TGI: 5.17 µM
MDA-MB-231 breast
  GI50: 2.54 µM
  TGI: 7.27 µM
MDA-MB-435
  GI50: 2.75 µM
  TGI: 5.94 µM
MOLT-4 leukemia
  GI50: 1.87 µM
  TGI: 8.74 µM
NCI-H226 lung
  GI50: 3.23 µM
  TGI: 14.2 µM
NCI-H23 lung
  GI50: 2.99 µM
  TGI: 8.03 µM
NCI-H460 lung
  GI50: 2.91 µM
  TGI: 6.55 µM
NCI-H522 lung
  GI50: 3.09 µM
  TGI: 6.49 µM
NCI/ADR-RES ovarian
  GI50: 10.2 µM
  TGI: 25 µM
OVCAR-3 ovarian
  GI50: 3.98 µM
  TGI: 8.97 µM
OVCAR-4 ovarian
  GI50: 4.17 µM
  TGI: 15.5 µM
OVCAR-5 ovarian
  GI50: 3.07 µM
  TGI: 20.9 µM
OVCAR-8 ovarian
  GI50: 3.87 µM
  TGI: 10.4 µM
PC-3 prostate
  GI50: 2.39 µM
  TGI: 8.79 µM
RPMI-8226 leukemia
  GI50: 3.85 µM
  TGI: 9.86 µM
RXF 393 renal
  GI50: 3.09 µM
  TGI: 6.78 µM
SF-268 CNS
  GI50: 4.17 µM
  TGI: 8.97 µM
SF-295 CNS
  GI50: 2.49 µM
  TGI: 6.38 µM
SF-539 CNS
  GI50: 3.69 µM
  TGI: 7.21 µM
SK-MEL-2 melanoma
  GI50: 3.33 µM
  TGI: 7.07 µM
SK-MEL-28 melanoma
  GI50: 3.78 µM
  TGI: 7.28 µM
SK-MEL-5 melanoma
  GI50: 3.88 µM
  TGI: 7.97 µM
SK-OV-3 ovarian
  GI50: 5.18 µM
  TGI: 16.4 µM
SN12C renal
  GI50: 2.87 µM
  TGI: 9.28 µM
SNB-19 CNS
  GI50: 4.58 µM
  TGI: 16.3 µM
SNB-75 CNS
  GI50: 0.972 µM
  TGI: 4.66 µM
SR leukemia
  GI50: 1.79 µM
  TGI: 8.78 µM
SW-620 colon
  GI50: 2.04 µM
  TGI: 5.6 µM
T-47D breast
  GI50: 3.27 µM
  TGI: 7.27 µM
TK-10 renal
  GI50: 2.78 µM
  TGI: 6.34 µM
U251 CNS
  GI50: 2.64 µM
  TGI: 5.91 µM
UACC-257 melanoma
  GI50: 3.56 µM
  TGI: 7.55 µM
UACC-62 melanoma
  GI50: 3.16 µM
  TGI: 6.48 µM
UO-31 renal
  GI50: 2.6 µM
  TGI: 6.49 µM
